Several values for one entry are separate records, joined by “and”; a condition that tells them apart may be missing. Identical values can stand only once.
Test system: thromboxane A2 challenged PAH-minipig
Experiment: Haemodynamics in the anesthetized thromboxane challenged minipig, intratracheal dry powder (PAP, BP)
Type: in vivo, Göttingen Minipigs
Experimental: Healthy Göttingen Minipigs® Ellegaard (Ellegaard, Denmark) of both sexes and having a weight of 2-6 kg were used. The animals were sedated by i.m. administration of about 25 mg/kg ketamine and about 10 mg/kg azaperone. Anaesthesia was initiated by i.v. administration of about 2 mg/kg ketamine and about 0.3 mg/kg midazolam. Maintenance of anaesthesia was by i.v. administration of about 7.5-30 mg/kg/h ketamine and about 1-4 mg/kg/h midazolam (rate of infusion 1-4 ml/kg/h) and about 150 μg/kg/h pancuronium bromide (for example Pancuronium-Actavis). After intubation, the animals were ventilated by the ventilator at a constant respiratory volume (10-12 ml/kg, 35 breaths/min; Avea®, Viasys Healthcare, USA, or Engström Carestation, GE Healthcare, Freiburg, Germany) such that an end-tidal CO2 concentration of about 5% was achieved. Ventilation was performed with room air, enriched with about 40% oxygen (normoxia). For the measurement of the haemodynamic parameters such as pulmonary arterial pressure (PAP), blood pressure (BP) and heart rate (HR), catheters were inserted into the carotid artery to measure the blood pressure, and a Swan-Ganz® catheter was introduced in a flow-directed manner via the jugular vein into the pulmonary artery. The haemodynamic signals were recorded and evaluated by means of pressure transducers (Combitransducer, B. Braun, Melsungen, Germany)/amplifiers and Ponemah® as data acquisition software.
As reference pure Lactose vehicle was applied in the beginning of each experiment.

O.O=C(O)c1ccc(CCN(CCc2ccccc2OCc2ccc(-c3ccc(C(F)(F)F)cc3)cc2Cl)[C@H]2CCCc3nc(C(=O)O)ccc32)cc1.O=C(O)c1ccc(CCN(CCc2ccccc2OCc2ccc(-c3ccc(C(F)(F)F)cc3)cc2Cl)[C@H]2CCCc3nc(C(=O)O)ccc32)cc1 [example 6a, (5S)—{[2-(4-Carboxyphenyl)ethyl][2-(2-{[3-chloro-4′-(trifluoromethyl)biphenyl-4-yl]methoxy}phenyl)-ethyl]amino}-5,6,7,8-tetrahydroquinoline-2-carboxylic acid semihydrate]
systemic blood pressure (375 μg/kg i.t., within the last hour of the observation interval): slightly affected
efficacy with regard to PAP reduction as well as systemic BP reduction (micronized hydrates, 1.5 mg/4 kg (=375 μg/kg) i.t.): comparable efficacy
BP (mean) (time 0 min, 375 μg/kg i.t.): 101 mmHg and 85 mmHg
PAP(mean) (time 0 min, 375 μg/kg i.t.): 39.6 mmHg and 40.8 mmHg and 38.5 mmHg
BP (mean) (time 10 min, 375 μg/kg i.t.): 103 mmHg and 83 mmHg and 79 mmHg
PAP(mean) (time 10 min, 375 μg/kg i.t.): 40.2 mmHg and 41.1 mmHg
BP (mean) (time 20 min, 375 μg/kg i.t.): 101 mmHg and 83 mmHg and 84 mmHg
PAP(mean) (time 20 min, 375 μg/kg i.t.): 40.4 mmHg and 41.3 mmHg
BP (mean) (time 30 min, 375 μg/kg i.t.): 100 mmHg and 81 mmHg and 88 mmHg
PAP(mean) (time 30 min, 375 μg/kg i.t.): 40.2 mmHg and 41.3 mmHg
BP (mean) (time 40 min, 375 μg/kg i.t.): 98 mmHg and 81 mmHg and 90 mmHg
PAP(mean) (time 40 min, 375 μg/kg i.t.): 40.4 mmHg and 41.8 mmHg and 41.0 mmHg
BP (mean) (time 50 min, 375 μg/kg i.t.): 99 mmHg and 78 mmHg and 89 mmHg
PAP(mean) (time 50 min, 375 μg/kg i.t.): 40.7 mmHg and 41.7 mmHg and 40.9 mmHg
BP (mean) (time 60 min, 375 μg/kg i.t.): 100 mmHg and 79 mmHg and 86 mmHg
BP, % changes vs. prevalues (time 60 min, 375 μg/kg i.t.): 100.6% and 99.7% and 97.2%
PAP(mean) (time 60 min, 375 μg/kg i.t.): 41.2 mmHg and 42.0 mmHg and 40.9 mmHg
PAP, % changes vs. prevalues (time 60 min, 375 μg/kg i.t.): 100.7% and 99.4% and 99.2%
BP (mean) (time 70 min, 375 μg/kg i.t.): 102 mmHg and 78 mmHg and 87 mmHg
BP, % changes vs. prevalues (time 70 min, 375 μg/kg i.t.): 102.6% and 98.4%
PAP(mean) (time 70 min, 375 μg/kg i.t.): 38.8 mmHg and 40.6 mmHg and 40.1 mmHg
PAP, % changes vs. prevalues (time 70 min, 375 μg/kg i.t.): 94.7% and 96.1% and 97.0%
BP (mean) (time 80 min, 375 μg/kg i.t.): 102 mmHg and 79 mmHg and 90 mmHg
BP, % changes vs. prevalues (time 80 min, 375 μg/kg i.t.): 102.6% and 99.7% and 101.8%
PAP(mean) (time 80 min, 375 μg/kg i.t.): 34.1 mmHg and 39.9 mmHg and 37.7 mmHg
PAP, % changes vs. prevalues (time 80 min, 375 μg/kg i.t.): 83.4% and 94.5% and 91.2%
BP (mean) (time 90 min, 375 μg/kg i.t.): 101 mmHg and 81 mmHg and 92 mmHg
BP, % changes vs. prevalues (time 90 min, 375 μg/kg i.t.): 101.6% and 102.2% and 104.0%
PAP(mean) (time 90 min, 375 μg/kg i.t.): 30.1 mmHg and 37.7 mmHg and 36.6 mmHg
PAP, % changes vs. prevalues (time 90 min, 375 μg/kg i.t.): 73.4% and 89.2% and 88.7%
BP (mean) (time 100 min, 375 μg/kg i.t.): 100 mmHg and 80 mmHg and 95 mmHg
BP, % changes vs. prevalues (time 100 min, 375 μg/kg i.t.): 100.6% and 101.0% and 107.4%
PAP(mean) (time 100 min, 375 μg/kg i.t.): 28.3 mmHg and 35.9 mmHg and 35.0 mmHg
PAP, % changes vs. prevalues (time 100 min, 375 μg/kg i.t.): 69.0% and 85.0% and 84.7%
BP (mean) (time 110 min, 375 μg/kg i.t.): 99 mmHg and 79 mmHg
BP, % changes vs. prevalues (time 110 min, 375 μg/kg i.t.): 99.6% and 99.7% and 111.9%
PAP(mean) (time 110 min, 375 μg/kg i.t.): 27.2 mmHg and 34.8 mmHg and 34.0 mmHg
PAP, % changes vs. prevalues (time 110 min, 375 μg/kg i.t.): 66.5% and 82.4% and 82.1%
BP (mean) (time 120 min, 375 μg/kg i.t.): 99 mmHg and 79 mmHg and 96 mmHg
BP, % changes vs. prevalues (time 120 min, 375 μg/kg i.t.): 99.6% and 99.7% and 108.6%
PAP(mean) (time 120 min, 375 μg/kg i.t.): 26.4 mmHg and 34.1 mmHg and 32.9 mmHg
PAP, % changes vs. prevalues (time 120 min, 375 μg/kg i.t.): 64.4% and 80.8% and 79.7%
BP (mean) (time 130 min, 375 μg/kg i.t.): 98 mmHg and 81 mmHg and 97 mmHg
BP, % changes vs. prevalues (time 130 min, 375 μg/kg i.t.): 98.6% and 102.2% and 109.7%
PAP(mean) (time 130 min, 375 μg/kg i.t.): 25.7 mmHg and 33.7 mmHg and 31.7 mmHg
PAP, % changes vs. prevalues (time 130 min, 375 μg/kg i.t.): 62.8% and 79.9% and 76.7%
BP (mean) (time 140 min, 375 μg/kg i.t.): 99 mmHg and 82 mmHg and 98 mmHg
BP, % changes vs. prevalues (time 140 min, 375 μg/kg i.t.): 99.6% and 103.5% and 110.8%
PAP(mean) (time 140 min, 375 μg/kg i.t.): 25.3 mmHg and 33.2 mmHg and 31.3 mmHg
PAP, % changes vs. prevalues (time 140 min, 375 μg/kg i.t.): 61.8% and 78.7% and 75.7%
BP (mean) (time 150 min, 375 μg/kg i.t.): 97 mmHg and 82 mmHg
BP, % changes vs. prevalues (time 150 min, 375 μg/kg i.t.): 97.6% and 103.5% and 109.7%
PAP(mean) (time 150 min, 375 μg/kg i.t.): 25.0 mmHg and 32.9 mmHg and 30.7 mmHg
PAP, % changes vs. prevalues (time 150 min, 375 μg/kg i.t.): 60.9% and 78.0% and 74.3%
BP (mean) (time 160 min, 375 μg/kg i.t.): 96 mmHg and 81 mmHg and 97 mmHg
BP, % changes vs. prevalues (time 160 min, 375 μg/kg i.t.): 96.6% and 102.2% and 109.7%
PAP(mean) (time 160 min, 375 μg/kg i.t.): 24.5 mmHg and 32.5 mmHg and 30.2 mmHg
